In publication PMC8168755, “Discovery of new VEGFR-2 inhibitors based on bis([1, 2, 4]triazolo)[4,3-a:3',4'-c]quinoxaline derivatives as anticancer agents and apoptosis inducers” (Journal of Enzyme Inhibition and Medicinal Chemistry, 2021):
Read-outs that look alike come from different tables or passages of the source.

Legend:
MCF-7 = assay: In vitro anti-proliferative activity (MTT assay), MCF-7; format: cell-based, human; conditions: read-out: IC50 (µM) MCF-7
Protocol: (§1) All newly prepared compounds were assessed for their in vitro cytotoxic efficiencies via standard MTT method, against breast cancer (MCF-7) and hepatocellular carcinoma (HepG2) cell lines.
(§2) MTT assay protocol[55–57]^,[74] was applied as described in Supplementary data.
(§3) Experimental of biological testing
(§4) 1. In vitro anti-proliferative activity
(§5) the synthesized compounds.
(§6) oC for 48 h under 5% CO2.
(§7) the synthesized compounds and incubated for 24 h.

HepG2 = assay: In vitro anti-proliferative activity (MTT assay), HepG2; format: cell-based, human; conditions: read-out: IC50 (µM) HepG2
Protocol: as §1, §2, §3, §4, §5, §6, §7

VEGFR-2 = VEGFR-2 (Homo sapiens, UniProt P35968); assay: biochemical
Protocol: All the synthesised compounds were tested for their inhibitory activity against VEGFR-2 as described in Supplementary data[75].
Experimental of biological testing […]
2. In vitro VEGFR-2 kinase assay
All the synthesized compounds were tested for its inhibitory activity against VEGFR-2. Human VEGFR-2 ELISA kit (Enzyme-Linked Immunosorbent Assay) was utilized in this test. At first, specific antibody for VEGFR-2 was seeded on a 96-well plate and 100 μL of the standard solution or the tested compound was added, all were incubated at room temperature for 2.5 h. Then washed, 100 μL of the prepared biotin antibody was added, then incubated at room temperature for additional 1 h. and washed. Then, 100 μL of streptavidin solution was added and incubated for 45 min. at room temperature. Washed again, 100 μL of TMB Substrate reagent was added and incubated for 30 min. at room temperature. 50 μL of the stop solution was added, then read at 450 […]
nm immediately. […]

[1] = test system: MCF-7 and HepG2 cell lines; assay: In vitro anti-proliferative activity (MTT assay), stated over both cell lines; format: cell-based; conditions: Homo sapiens, read-out: IC50 values ranging over the two cell lines (MCF-7 and HepG2)
BAX = conditions: HepG2, 24 h
Bcl-2 = conditions: HepG2, 24 h
[2] = Homo sapiens, MCF7, MTT, 24 h treatment, mean ± SD of three separate experiments
[3] = Homo sapiens, HepG2, MTT, 24 h treatment, mean ± SD of three separate experiments
[4] = mean ± SD of three separate experiments
[5] = MTT, 24 h treatment, mean ± SD of three separate experiments
[6] = MTT, range stated for a group of compounds and both cell lines
[7] = control 1.00, mean ± SEM of three experiments

Sequence of VEGFR-2 (P35968 20-1356): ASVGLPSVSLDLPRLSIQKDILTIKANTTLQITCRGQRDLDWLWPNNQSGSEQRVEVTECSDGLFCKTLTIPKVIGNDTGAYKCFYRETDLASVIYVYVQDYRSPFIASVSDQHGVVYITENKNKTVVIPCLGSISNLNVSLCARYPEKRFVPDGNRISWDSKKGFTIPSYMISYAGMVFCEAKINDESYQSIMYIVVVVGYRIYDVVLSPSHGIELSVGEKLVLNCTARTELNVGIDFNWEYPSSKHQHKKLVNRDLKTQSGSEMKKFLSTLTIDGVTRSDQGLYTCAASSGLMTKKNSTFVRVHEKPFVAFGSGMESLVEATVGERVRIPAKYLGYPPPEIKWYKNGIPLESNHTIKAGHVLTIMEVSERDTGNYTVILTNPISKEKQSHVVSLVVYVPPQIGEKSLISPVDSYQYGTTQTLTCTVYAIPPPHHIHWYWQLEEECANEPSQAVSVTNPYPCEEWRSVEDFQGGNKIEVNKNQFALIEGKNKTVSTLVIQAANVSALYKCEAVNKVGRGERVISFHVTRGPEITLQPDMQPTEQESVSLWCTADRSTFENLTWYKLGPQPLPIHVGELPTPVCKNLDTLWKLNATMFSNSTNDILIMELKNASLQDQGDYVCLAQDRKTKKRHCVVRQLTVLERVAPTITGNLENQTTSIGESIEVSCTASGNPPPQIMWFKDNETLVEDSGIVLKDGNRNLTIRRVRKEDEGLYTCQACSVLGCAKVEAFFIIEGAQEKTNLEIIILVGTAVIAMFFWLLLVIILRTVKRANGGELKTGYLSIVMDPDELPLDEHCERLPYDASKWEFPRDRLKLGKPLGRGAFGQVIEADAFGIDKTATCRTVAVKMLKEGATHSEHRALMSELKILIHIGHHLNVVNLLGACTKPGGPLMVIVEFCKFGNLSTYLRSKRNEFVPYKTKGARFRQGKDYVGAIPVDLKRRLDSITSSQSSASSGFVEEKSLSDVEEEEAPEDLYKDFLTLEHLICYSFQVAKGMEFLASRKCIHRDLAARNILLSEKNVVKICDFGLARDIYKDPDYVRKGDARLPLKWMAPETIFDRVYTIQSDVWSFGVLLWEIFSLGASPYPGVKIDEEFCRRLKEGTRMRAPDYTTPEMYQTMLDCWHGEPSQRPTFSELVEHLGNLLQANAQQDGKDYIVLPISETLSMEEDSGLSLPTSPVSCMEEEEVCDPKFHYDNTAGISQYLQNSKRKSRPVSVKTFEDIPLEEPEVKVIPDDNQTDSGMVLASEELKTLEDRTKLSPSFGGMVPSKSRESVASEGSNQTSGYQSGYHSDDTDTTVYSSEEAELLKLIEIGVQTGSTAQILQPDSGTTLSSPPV

| Compound | IC50 (MCF-7; [2]) [µM] | IC50 (HepG2; [3]) [µM] | IC50 (VEGFR-2; [4]) [nM] | IC50 [1, 6] [µM] | also measured |
| --- | --- | --- | --- | --- | --- |
| CCC(C)NC(=O)c1ccc(NC(=O)CSc2nnc3c4nncn4c4ccccc4n23)cc1 (stereo not drawn) [Compound 23c, 4-(2-(Bis([1,2, 4]triazolo)[4,3-a:3',4'-c]quinoxalin-3-ylthio)acetamido)-N-(sec-butyl)benzamide] | 76.2 ± 6.9 | 69.8 ± 5.9 | 47.1 ± 4.2 |  |  |
| O=C(CSc1nnc2c3nncn3c3ccccc3n12)Nc1ccc(C(=O)Nc2ccc(F)cc2)cc1 [Compound 23k, 4-(2-(Bis([1,2, 4]triazolo)[4,3-a:3′,4′-c]uinoxaline-3-ylthio)acetamido)-N-(4-fluorophenyl)benzamide] | 68.2 ± 5.2 | 71.8 ± 6.3 | 49.6 ± 4.1 |  |  |
| CC(=O)c1ccc(NC(=O)c2ccc(NC(=O)CSc3nnc4c5nncn5c5ccccc5n34)cc2)cc1 [Compound 23g, N-(4-Acetylphenyl)-4-(2-(bis([1,2, 4]triazolo)[4,3-a:3',4'-c]quinoxalin-3-ylthio)acetamido)benzamide] | 81.3 ± 7.4 | 80.7 ± 7.1 | 62.7 ± 5.7 |  |  |
| CCNC(=O)c1ccc(NC(=O)CSc2nnc3c4nncn4c4ccccc4n23)cc1 [Compound 23a, 4-(2-(Bis([1,2, 4]triazolo)[4,3-a:3',4'-c]quinoxalin-3-ylthio)acetamido)-N-ethylbenzamide] | 17.7 ± 1.5 | 11.3 ± 0.9 | 7.1 ± 0.4 | 6.4 to 19.4 |  |
| O=C(CSc1nnc2c3nncn3c3ccccc3n12)Nc1ccc(C(=O)NC2CCCC2)cc1 [Compound 23e, 4-(2-(Bis([1,2, 4]triazolo)[4,3-a:3',4'-c]quinoxalin-3-ylthio)acetamido)-N-cyclopentylbenzamide] | 78.3 ± 6.5 | 74.8 ± 6.9 | 39.8 ± 3.1 |  |  |
| O=C(CSc1nnc2c3nncn3c3ccccc3n12)Nc1ccc(C(=O)NC2CCCCC2)cc1 [Compound 23f, 4-(2-(Bis([1,2, 4]triazolo)[4,3-a:3',4'-c]quinoxalin-3-ylthio)acetamido)-N-cyclohexylbenzamide] | 74.1 ± 6.7 | 70.4 ± 5.8 | 39.5 ± 2.9 |  |  |
| O=C(CSc1nnc2c3nncn3c3ccccc3n12)Nc1ccc(C(=O)Nc2cc(Cl)ccc2Cl)cc1 [Compound 23j, 4-(2-(Bis([1,2, 4]triazolo)[4,3-a:3′,4′-c]uinoxaline-3-ylthio)acetamido)-N-(2,5-dichlorophenyl)benzamide] |  |  |  |  | Increase of BAX level (BAX; compared to control cells): 1.65 fold; Protein expression (normalized to β-actin) BAX (BAX; [7]): 1.65 ± 0.06; Decrease of Bcl-2 level (Bcl-2; compared to control cells): 2.63 fold; Protein expression (normalized to β-actin) Bcl-2 (Bcl-2; [7]): 0.38 ± 0.03; IC50 (MCF-7; [5]): 10.3 ± 0.8 µM; IC50 (HepG2; [5]): 6.4 ± 0.5 µM; IC50 (VEGFR-2): 3.7 ± 0.2 nM |
| O=C(CSc1nnc2c3nncn3c3ccccc3n12)Nc1ccc(C(=O)Nc2cccc(Cl)c2)cc1 [Compound 23h, 4-(2-(Bis([1,2, 4]triazolo)[4,3-a:3',4'-c]quinoxalin-3-ylthio)acetamido)-N-(3-chlorophenyl)benzamide] |  |  |  |  | IC50 (MCF-7; Homo sapiens, MCF7, 24 h): 37.2 ± 3.2 µM; IC50 [1]: 15.2 to 48.3 µM; IC50 (HepG2; Homo sapiens, HepG2, 24 h): 22.3 ± 1.8 µM; IC50 (VEGFR-2): 11.7 ± 0.9 nM |

Further lines, with some results ahead:

| IC50 (MCF-7; [2]) [µM] | IC50 (HepG2; [3]) [µM] | IC50 (VEGFR-2; [4]) [nM] | IC50 [1, 6] [µM] | Compound | also measured |
| --- | --- | --- | --- | --- | --- |
|  |  | 5.8 ± 0.3 |  | O=C(CSc1nnc2c3nncn3c3ccccc3n12)Nc1ccc(C(=O)Nc2ccccc2O)cc1 [Compound 23l, 4-(2-(Bis([1,2, 4]triazolo)[4,3-a:3′,4′-c]uinoxaline-3-ylthio)acetamido)-N-(2-hydroxyphenyl)benzamide] | IC50 (MCF-7; [5]): 19.4 ± 1.1 µM; IC50 (HepG2; [5]): 11.3 ± 0.7 µM |
| 21.6 ± 1.7 | 15.2 ± 1.2 | 9.7 ± 0.7 | 15.2 to 48.3 | O=C(CSc1nnc2c3nncn3c3ccccc3n12)Nc1ccc(C(=O)Nc2ccc(O)cc2)cc1 [Compound 23m, 4-(2-(Bis([1,2, 4]triazolo)[4,3-a:3′,4′-c]uinoxaline-3-ylthio)acetamido)-N-(4-hydroxyphenyl)benzamide] |  |
|  |  | 9.4 ± 0.7 |  | O=C(CSc1nnc2c3nncn3c3ccccc3n12)Nc1ccc(C(=O)Nc2ccc(Cl)cc2)cc1 [Compound 23i, 4-(2-(Bis([1,2, 4]triazolo)[4,3-a:3',4'-c]quinoxalin-3-ylthio)acetamido)-N-(4-chlorophenyl)benzamide] |  |
| 3.51 ± 0.22 | 2.17 ± 0.14 |  |  | CNC(=O)c1cc(Oc2ccc(NC(=O)Nc3ccc(Cl)c(C(F)(F)F)c3)cc2)ccn1 [Sorafenib, sorafenib, reference compound] |  |
| 78.9 ± 6.1 | 69.1 ± 6.1 | 71.6 ± 5.2 |  | CCCCNC(=O)c1ccc(NC(=O)CSc2nnc3c4nncn4c4ccccc4n23)cc1 [Compound 23b, 4-(2-(Bis([1,2, 4]triazolo)[4,3-a:3',4'-c]quinoxalin-3-ylthio)acetamido)-N-butylbenzamide] |  |
| 48.3 ± 3.9 | 34.5 ± 2.8 | 23.9 ± 1.9 | 15.2 to 48.3 | O=C(CSc1nnc2c3nncn3c3ccccc3n12)Nc1ccc(C(=O)NNC(=O)c2ccccc2Cl)cc1 [Compound 24a, 2-(Bis([1,2, 4]triazolo)[4,3-a:3',4'-c]quinoxalin-3-ylthio)-N-(4–(2-(2-chlorobenzoyl)hydrazine-1-carbonyl)phenyl)acetamide] |  |
| 21.6 ± 1.8 | 17.5 ± 1.2 | 11.8 ± 0.8 | 15.2 to 48.3 | CC(C)(C)NC(=O)c1ccc(NC(=O)CSc2nnc3c4nncn4c4ccccc4n23)cc1 [Compound 23d, 4-(2-(Bis([1,2, 4]triazolo)[4,3-a:3',4'-c]quinoxalin-3-ylthio)acetamido)-N-(tert-butyl)benzamide] |  |
| 42.7 ± 3.7 | 30.3 ± 2.7 | 22.3 ± 1.8 | 15.2 to 48.3 | O=C(CSc1nnc2c3nncn3c3ccccc3n12)Nc1ccc(C(=O)NNC(=O)c2cccc(Cl)c2)cc1 [Compound 24b, 2-(Bis([1,2, 4]triazolo)[4,3-a:3',4'-c]quinoxalin-3-ylthio)-N-(4–(2-(3-chlorobenzoyl)hydrazine-1-carbonyl)phenyl)acetamide] |  |
| 40.7 ± 3.7 | 29.8 ± 2.1 | 20.7 ± 1.6 | 15.2 to 48.3 | O=C(CSc1nnc2c3nncn3c3ccccc3n12)Nc1ccc(C(=O)NNC(=O)c2ccccc2O)cc1 [Compound 24c, 2-(Bis([1,2, 4]triazolo)[4,3-a:3',4'-c]quinoxalin-3-ylthio)-N-(4–(2-(2-hydroxybenzoyl)hydrazine-1-carbonyl)phenyl)acetamide] |  |
| 16.5 ± 1.3 | 12.7 ± 0.9 | 7.4 ± 0.5 | 6.4 to 19.4 | O=C(CSc1nnc2c3nncn3c3ccccc3n12)Nc1ccc(C(=O)Nc2ccc([N+](=O)[O-])cc2O)cc1 [Compound 23n, 4-(2-(Bis([1,2, 4]triazolo)[4,3-a:3′,4′-c]uinoxaline-3-ylthio)acetamido)-N-(2-hydroxy-4-nitrophenyl)benzamide] |  |
